Reference: article PMC10432884 (Clinical and Translational Science, 2023)
Where two headings read alike, the source gives them in different places.

System: healthy subjects
[1] = SAD pooled zagociguat group (n = 42)

## Fc1ccccc1Cc1nc(-c2nc(C(F)(F)F)n[nH]2)cn2ccnc12 [zagociguat, 8‐(2‐fluorobenzyl)‐6‐(3‐(trifluoromethyl)‐1H‐1,2,4‐triazol‐5‐yl)imidazo[1,2‐a]pyrazine]
SAD 0.3 mg (n = 6)
  Subjects discontinued from study drug due to ≥1 TEAE: 0 n
  Subjects with ≥1 SAE: 0 n
  Subjects with ≥1 TEAE: 2 (33.3%) n (%)
  Subjects with ≥1 study drug related TEAE: 2 n
  TEAEs: 5 n
SAD 1 mg (n = 6)
  Subjects discontinued from study drug due to ≥1 TEAE: 0 n
  Subjects with ≥1 SAE: 0 n
  Subjects with ≥1 TEAE: 2 (33.3%) n (%)
  Subjects with ≥1 study drug related TEAE: 1 n
  TEAEs: 5 n
SAD 3 mg
  Orthostatic hypotension TEAE: One
SAD 3 mg (n = 6)
  Subjects discontinued from study drug due to ≥1 TEAE: 0 n
  Subjects with ≥1 SAE: 0 n
  Subjects with ≥1 TEAE: 3 (50.0%) n (%)
  Subjects with ≥1 study drug related TEAE: 2 n
  TEAEs: 7 n
SAD 10 mg (n = 6)
  Subjects discontinued from study drug due to ≥1 TEAE: 0 n
  Subjects with ≥1 SAE: 0 n
  Subjects with ≥1 TEAE: 2 (33.3%) n (%)
  Subjects with ≥1 study drug related TEAE: 2 n
  TEAEs: 7 n
SAD 20 mg (n = 6)
  Subjects discontinued from study drug due to ≥1 TEAE: 0 n
  Subjects with ≥1 SAE: 0 n
  Subjects with ≥1 TEAE: 3 (50.0%) n (%)
  Subjects with ≥1 study drug related TEAE: 2 n
  TEAEs: 5 n
SAD 30 mg (n = 6)
  Subjects discontinued from study drug due to ≥1 TEAE: 0 n
  Subjects with ≥1 SAE: 0 n
  Subjects with ≥1 TEAE: 5 (83.3%) n (%)
  Subjects with ≥1 study drug related TEAE: 5 n
  TEAEs: 13 n
SAD 50 mg (4/6 subjects)
  Subjects with gastrointestinal (GI)-related TEAEs: 66.7%
SAD 50 mg (n = 6)
  Subjects discontinued from study drug due to ≥1 TEAE: 0 n
  Subjects with ≥1 SAE: 0 n
  Subjects with ≥1 TEAE: 5 (83.3%) n (%)
  Subjects with ≥1 study drug related TEAE: 3 n
  TEAEs: 15 n
SAD all cohorts except 50 mg (1/6 subjects each)
  Subjects with gastrointestinal (GI)-related TEAEs: 16.7%
SAD all zagociguat-treated subjects (8 of 42), none on placebo
  Subjects with at least one dizziness TEAE: 19.0%
[1]
  Subjects discontinued from study drug due to ≥1 TEAE: 0 n
  Subjects with ≥1 SAE: 0 n
  Subjects with ≥1 TEAE: 22 (52.4%) n (%)
  Subjects with ≥1 study drug related TEAE: 17 n
  TEAEs: 57 n
Single doses up to 50 mg
  Tolerability: well‐tolerated with no safety signals
